Patent publication US6344455B1 (Warner-Lambert Company, priority 1998, dated 2002)
pIC50: −log10 of the molar value. Where two headings read alike, the source gives them in different places.

Experiments:
[1] = tested on: VEGF secretion from A431 cells; conditions: for VEGF secretion: 48 hours
[2] = tested on: heregulin-mediated tyrosine phosphorylation in MDA-MB-453 cells; assay: Heregulin-dependent tyrosine phosphorylation assay, MDA-MB-453 cells, western blot; format: cell-based; conditions: Homo sapiens, 2 hours compound, 10 ng/mL heregulin 5 minutes, read-out: Heregulin-Medidated Tyrosine Phosphorylation IC50
Description: Proteins in the lysate were separated by polyacrylamide gel electrophoresis and electrophoretically transferred to nitrocellulose. […] Band intensities were determined with a laser densitometer.

[3] = tested on: human epidermoid carcinoma, A431; assay: In vivo tumor inhibition assay, A431 tumor fragments s.c. in nude mice; conditions: for Tumor Growth Delay / Tumor Growth Inhibition: 15 consecutive days; for Tumor Growth Delay: isethionate salt in water, T-C to 750 mg; for Tumor Growth Inhibition: growth delay divided by number of treatments times 100%
Description: The human epidermoid carcinoma, A431, was propagated in vivo by serial transplantation. This tumor model was selected for these studies because of its known dependence upon the EGF receptor for growth and its early stage responsiveness to monoclonal antibody therapy in vivo. In this experiment nude mice weighing 18-22 grams were implanted subcutaneously with 30 mg A431 tumor fragments in the region of the right axilla on Day 0. Tumors were allowed to grow to a mass of 100 to 150 mg, at which time the tumor bearing animals were randomized and distributed into treatment cages. […] The isethionate salts can be prepared by titrating the compounds into solution with 2 equivalents of isethionic acid. Treatment was based on average group weight. The control animals received water. Evaluation of the experiment was based on tumor growth delay, T-C, defined as the difference, in days, for the treated and control tumors to reach an evaluation size of 750 mg. Data can also be represented as the percentage of tumor growth inhibition, defined as the tumor growth delay divided by the number of treatments times 100%. […] Statistical analysis was performed using JMP for Macintosh (SAS Institute, Inc., Cary, N.C. ).

pIC50 [2]: 8.05
SMILES: C=CC(=O)Nc1cc2c(Nc3ccc(F)c(Cl)c3)ncnc2cc1OCCCN1CCOCC1 [compound 1, N-[4-(3-chloro-4-fluoro-phenylamino)-7-(3-morpholin-4-yl-propoxy)-quinazolin-6-yl]-acrylamide]
VEGF secretion ([1]; 10 ng/mL EGF stimulated, 0.1 μM compound): 1490 ± 170 pg/10^5 cells ± SE
VEGF secretion ([1]; 10 ng/mL EGF stimulated, 0.5 μM compound): 560 ± 29 pg/10^5 cells ± SE
effect on EGF- or TGF-alpha stimulated VEGF secretion ([1]; 0.5 μM, in words): blocked
VEGF secretion ([1]; TGF-alpha stimulated, 0.1 μM compound): 1976 ± 37 pg/10^5 cells ± SE
VEGF secretion ([1]; TGF-alpha stimulated, 0.5 μM compound): 766 ± 75 pg/10^5 cells ± SE
effect on the basal level of VEGF secretion from A431 cells ([1]; basal, in words): appeared to inhibit
VEGF secretion ([1]; serum free media (basal), 0.1 μM compound): 280 ± 41 pg/10^5 cells ± SE
VEGF secretion ([1]; serum free media (basal), 0.5 μM compound): 250 ± 46 pg/10^5 cells ± SE
Tumor Growth Delay ([3]; 5 mg/kg perorally): 53.2 days
Tumor Growth Inhibition ([3]; 5 mg/kg perorally): 355%
Tumor Growth Delay ([3]; 18 mg/kg perorally): 41.3 days
Tumor Growth Inhibition ([3]; 18 mg/kg perorally): 275%
antitumor response T-C ([3]; A431 tumors in vivo, dose not given): 53 days
